Measured values: patent publication US5728670A, “Enzymatically stable alkyl (alkyl glycosid) uronates as nonionic surfactants and a process for their manufacture” (Lever Brothers Company, Division of Conopco, Inc., priority 1993, dated 1998)

Legend:
Lipolase = target: T1, Lipolase (Thermomyces lanuginosus, UniProt O59952); experiment: Enzyme stability: Lipolase-catalyzed hydrolysis monitored by pH-stat titration; type: biochemical; details: for MEAN SLOPE: Tris-HCl pH 8.0, 30° C., acid production titrated with 0.1N NaOH; for STABILITY / REL VELOCITY: Lipolase hydrolysis; for STABILITY: fold relative to α-methyl D-glucose monolaurate; for REL VELOCITY: relative to α-methyl D-glucose monolaurate = 100
T1 sequence (O59952 23-291): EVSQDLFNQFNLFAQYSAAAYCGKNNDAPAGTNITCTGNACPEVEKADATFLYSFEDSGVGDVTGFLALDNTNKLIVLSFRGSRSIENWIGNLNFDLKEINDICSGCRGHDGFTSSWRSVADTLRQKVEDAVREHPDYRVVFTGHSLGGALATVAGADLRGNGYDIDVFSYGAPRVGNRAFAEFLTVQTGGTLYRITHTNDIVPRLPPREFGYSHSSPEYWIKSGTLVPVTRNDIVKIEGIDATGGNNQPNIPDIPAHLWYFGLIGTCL
Procedure: Enzyme catalyzed hydrolysis of uronates was monitored using a TitraLab (Radiometer, Copenhagen) pH-stat autotitrator. Emulsified substrate was prepared by mixing water (5 mL), 1-butanol (1 mL), acacia gum (1 g), and substrate (0.357 mmoles) using a homogenizer (Omni-mixer, OCI Instruments)for 15 minutes. Emulsified substrate (5 mL) was mixed with Tris-HCl buffer (20 mL, 100 mM, pH 8.0) and equilibrated at 30° C. in a thermostatic reaction cup. Lipolase (20.5 LU) was added to initiate the reaction and the production of acid was monitored by titration with 0.1N NaOH.

[1] = Wash cycle stability (t1/2) by automatic titrator; type: physicochemical; details: 40° C., pH=10, 8.13×10^-3 M concentration; 8130 µM
Procedure: The wash cycle stability or half-life (t1/2) of decyl(methyl α-D-galactopyranosid)uronate was determined using an automatic titrator at 40° C., pH=10, 8.13×10^-3 M concentration.

| Compound | MEAN SLOPE (Lipolase; Lipolase 20.5 LU) | STABILITY (Lipolase) [X] | REL VELOCITY (Lipolase) | Enzyme stability to lipolase hydrolysis (in words) (Lipolase; Lipolase 20.5 LU, pH 8.0, 30° C.) | Wash cycle stability or half-life (t1/2) [1] [h] |
| --- | --- | --- | --- | --- | --- |
| CCCCCCCCCCCC(=O)OC[C@H]1OC(O)[C@H](O)[C@@H](O)[C@@H]1O (stereo partly drawn) [D-Glucose Mono-laurate, D-glucose monolaurate] | 1.6880 | 2.4 | 42 |  |  |
| CCCCCCCCCCOC(=O)[C@H]1O[C@@H](OC)[C@H](O)[C@@H](O)[C@H]1O [Decyl(Methyl β-D-Galactopyranosid)uronate] | 0.7101 | 5.6 | 18 |  |  |
| CCCCCCOC(=O)[C@H]1O[C@H](OC)[C@H](O)[C@@H](O)[C@H]1O [Hexyl(Methyl α-D-Galactopyranosid)uronate] |  |  |  | very stable/slow hydrolysis |  |
| CCCCCCCCCCOC(=O)[C@H]1O[C@H](OC)[C@H](O)[C@@H](O)[C@H]1O [Decyl(Methyl α-D-Galactopyranosid)uronate] |  |  |  |  | 7.9 |
| CCCCCCCCCCCC(=O)OC[C@H]1O[C@H](OC)[C@H](O)[C@@H](O)[C@@H]1O [α-Methyl D-Glucose Monolaurate, α-methyl D-glucose monolaurate] | 3.9921 | 1 | 100 |  |  |
